Assays:
[1] = Measured adsorption values of drugs on activated carbon; type: physicochemical; conditions: specific surface area 6800M^2/g
[2] = Measured adsorption values of drugs on hydroxyl-amino carbon; type: physicochemical; conditions: specific surface area 6800M^2/g
cancer patients = assay: Experimental clinical cases, intravenous injection; type: in vivo, human; conditions: Case 4, breast cancer with systematic metastasis, before activated carbon treatment

## Nc1ncnc2nc[nH]c12 [adenine]
[1]
  Adsorption value on activated carbon: 213 mg
[2]
  Adsorption value on hydroxyl-amino carbon: 260 mg

## thymopeptide
[1]
  Adsorption value on activated carbon: 90 mg
[2]
  Adsorption value on hydroxyl-amino carbon: 127 mg

## ferroporphyrin
[1]
  Adsorption value on activated carbon: 283 mg
[2]
  Adsorption value on hydroxyl-amino carbon: 311 mg

## Nc1nc2nc[nH]c2c(=O)[nH]1 [guanine]
[1]
  Adsorption value on activated carbon: 331 mg
[2]
  Adsorption value on hydroxyl-amino carbon: 378 mg

## N.N.[Cl][Pt][Cl] [cisplatin, reference compound]
[1]
  Adsorption value on activated carbon: 995 mg
[2]
  Adsorption value on hydroxyl-amino carbon: 1105 mg

## S=c1nc[nH]c2nc[nH]c12 [Example 6-MP, 6-MP, reference compound]
[1]
  Adsorption value on activated carbon: 220 mg
[2]
  Adsorption value on hydroxyl-amino carbon: 304 mg

## ClC(Cl)Cl [chloroform]
[1]
  Adsorption value on activated carbon: 10 mg
[2]
  Adsorption value on hydroxyl-amino carbon: 4 mg

## O=c1[nH]cc(Cl)c(=O)[nH]1 [5-chlorouracil]
[1]
  Adsorption value on activated carbon: 75 mg
[2]
  Adsorption value on hydroxyl-amino carbon: 102 mg

## Cc1c[nH]c(=O)[nH]c1=O [thymine]
[1]
  Adsorption value on activated carbon: 5 mg
[2]
  Adsorption value on hydroxyl-amino carbon: 17 mg

## O=c1cc[nH]c(=O)[nH]1 [uracil]
[1]
  Adsorption value on activated carbon: 33 mg
[2]
  Adsorption value on hydroxyl-amino carbon: 51 mg

## CN1CC[C@]23c4c5ccc(O)c4O[C@H]2[C@@H](O)C=C[C@H]3[C@H]1C5 [Morphine]
Cancer patients
  Analgesia: of no effect

## O=P1(N(CCCl)CCCl)NCCCO1 (stereo not drawn) [CTX, reference compound]
[1]
  Adsorption value on activated carbon: 98 mg
[2]
  Adsorption value on hydroxyl-amino carbon: 136 mg

## O=c1[nH]cc(F)c(=O)[nH]1 [5-fluorouracil, reference compound]
[2]
  Adsorption value on hydroxyl-amino carbon: 49 mg

Reference: patent US20050123613A1, “Activated carbon infusion solution, preparation method therefor and use thereof for the manufacture of drug for treating cancer” (priority 2003, published 2005)
